The values below come from patent publication US20240174675A1, “SMALL MOLECULE REGULATORS OF ALVEOLAR TYPE 2 CELL PROLIFERATION FOR THE TREATMENT OF PULMONARY DISEASES” (THE SCRIPPS RESEARCH INSTITUTE, priority 2021, published 2024).

SMILES strings stand for the structures.

The test has as its target T1, Human DPP4 (Homo sapiens, UniProt P27487).
T1 construct: purchased Sigma-Aldrich MAK088
The test is described as follows: DPP4 activity assay (DPP4 Activity Assay Kit, fluorescent substrate). The class given is biochemical. To be noted: Human DPP4; read-out: DPP4 inhibition IC50 [nM]). As to the method:
DPP4 activity assay. Human DPP4 activity assay data were obtained using a DPP4 Activity Assay Kit (Sigma-Aldrich, MAK088) according to the manufacturer's instructions. Briefly, 10 μL of DPP4 Assay Buffer were transferred per well in low volume 384-well plates before transferring 10 μL of test compound dissolved in DPP4 assay buffer. To each well was added 5 μL of Master Reaction Mix containing a fluorescent substrate that becomes fluorescent upon cleavage by the enzyme. Fluorescence intensity measurements were recorded at 1-minute time intervals over the course of 20 minutes using an Envision Multimode Plate Reader (PerkinElmer).

T1 sequence (P27487 whole entry): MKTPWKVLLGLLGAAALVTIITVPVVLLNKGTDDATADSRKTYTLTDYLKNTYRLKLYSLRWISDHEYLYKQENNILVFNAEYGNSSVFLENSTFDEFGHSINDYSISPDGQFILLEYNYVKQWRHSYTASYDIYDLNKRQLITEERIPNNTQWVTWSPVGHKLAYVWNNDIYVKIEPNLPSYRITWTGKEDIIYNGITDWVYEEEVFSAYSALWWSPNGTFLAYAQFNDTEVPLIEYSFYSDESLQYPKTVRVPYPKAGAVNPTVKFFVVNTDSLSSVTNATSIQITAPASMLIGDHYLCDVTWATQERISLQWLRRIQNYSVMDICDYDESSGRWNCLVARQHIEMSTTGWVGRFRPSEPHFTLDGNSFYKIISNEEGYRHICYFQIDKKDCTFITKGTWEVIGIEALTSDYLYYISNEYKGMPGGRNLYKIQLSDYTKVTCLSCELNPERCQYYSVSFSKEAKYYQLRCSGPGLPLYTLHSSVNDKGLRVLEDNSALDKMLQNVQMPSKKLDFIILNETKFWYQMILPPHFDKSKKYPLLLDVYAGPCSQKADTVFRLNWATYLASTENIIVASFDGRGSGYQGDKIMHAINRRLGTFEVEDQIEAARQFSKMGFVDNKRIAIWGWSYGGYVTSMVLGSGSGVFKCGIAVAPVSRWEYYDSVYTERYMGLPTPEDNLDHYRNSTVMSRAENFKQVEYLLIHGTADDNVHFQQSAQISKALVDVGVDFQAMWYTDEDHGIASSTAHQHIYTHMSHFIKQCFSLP

In the case of `CC#CCn1c(N2CCC[C@@H](N)C2)nc2c1c(=O)n(Cc1nc(NC)ccc1C(=O)OCCCCCC)c(=O)n2C` [Compound 32, hexyl (R)-2-((8-(3-aminopiperidin-1-yl)-7-(but-2-yn-1-yl)-3-methyl-2,6-dioxo-2,3,6,7-tetrahydro-1H-purin-1-yl)methyl)-6-(methylamino)nicotinate], the concentration for half-maximal inhibition (IC50) is > 1000 nM.
Consider `CC#CCn1c(N2CCC[C@@H](N)C2)nc2c1c(=O)n(Cc1nc(NCCCC)ccc1C(=O)O)c(=O)n2C` [Compound 33], for which the IC50 was found to be 11.4 nM.
The same measure for `CC#CCn1c(N2CCC[C@@H](N)C2)nc2c1c(=O)n(Cc1nc(NCCCCCCCn3cc(CN(C[C@H](O)[C@@H](O)[C@H](O)[C@H](O)CO)C[C@H](O)[C@@H](O)[C@H](O)[C@H](O)CO)nn3)ccc1C(=O)OC)c(=O)n2C` [Compound 34, methyl 2-((8-((R)-3-aminopiperidin-1-yl)-7-(but-2-yn-1-yl)-3-methyl-2,6-dioxo-2,3,6,7-tetrahydro-1H-purin-1-yl)methyl)-6-((7-(4-((bis((2S,3R,4R,5R)-2,3,4,5,6-pentahydroxyhexyl)amino)methyl)-1H-1,2,3-triazol-1-yl)heptyl)amino)nicotinate]: 41 nM; for `CC#CCn1c(N2CCC[C@@H](N)C2)nc2c1c(=O)n(Cc1nc(NCCCCCCCn3cc(CN(C[C@H](O)[C@@H](O)[C@H](O)[C@H](O)CO)C[C@H](O)[C@@H](O)[C@H](O)[C@H](O)CO)nn3)ccc1C(=O)O)c(=O)n2C` [Compound 35, 2-((8-((R)-3-aminopiperidin-1-yl)-7-(but-2-yn-1-yl)-3-methyl-2,6-dioxo-2,3,6,7-tetrahydro-1H-purin-1-yl)methyl)-6-((7-(4-((bis((2S,3R,4R,5R)-2,3,4,5,6-pentahydroxyhexyl)amino)methyl)-1H-1,2,3-triazol-1-yl)heptyl)amino)nicotinic acid]: 34.3 nM.
The figure for `CC#CCn1c(N2CCC[C@@H](N)C2)nc2c1c(=O)n(Cc1ccc(Cl)cc1Br)c(=O)n2C` [Compound 36] is 27 nM; for `CC#CCn1c(N2CCC[C@@H](N)C2)nc2c1c(=O)n(Cc1ccc(Cl)cc1C(=O)OC(C)C)c(=O)n2C` [Compound 37] it is 700 nM.
In the case of `CC#CCn1c(N2CCC[C@@H](N)C2)nc2c1c(=O)n(Cc1ccc(Cl)cc1C(=O)OCCCCCC)c(=O)n2C` [Compound 38, hexyl (R)-2-((8-(3-aminopiperidin-1-yl)-7-(but-2-yn-1-yl)-3-methyl-2,6-dioxo-2,3,6,7-tetrahydro-1H-purin-1-yl)methyl)-5-chlorobenzoate], the IC50 is > 10000 nM.
The same measure for `CC#CCn1c(N2CCC[C@@H](N)C2)nc2c1c(=O)n(Cc1ccc(Cl)cc1C(=O)NCCCCC)c(=O)n2C` [Compound 40, (R)-2-((8-(3-aminopiperidin-1-yl)-7-(but-2-yn-1-yl)-3-methyl-2,6-dioxo-2,3,6,7-tetrahydro-1H-purin-1-yl)methyl)-5-chloro-N-pentylbenzamide]: 700 nM; for `CC#CCn1c(N2CCC[C@@H](N)C2)nc2c1c(=O)n(Cc1ccc(Cl)cc1C(=O)OCCOCCn1cc(CN(CCCCCC)C[C@H](O)[C@@H](O)[C@H](O)[C@H](O)CO)nn1)c(=O)n2C` [Compound 41, 2-(2-(4-((hexyl(2,3,4,5,6-pentahydroxyhexyl)amino)methyl)-1H-1,2,3-triazol-1-yl)ethoxy)ethyl 2-((8-((R)-3-aminopiperidin-1-yl)-7-(but-2-yn-1-yl)-3-methyl-2,6-dioxo-2,3,6,7-tetrahydro-1H-purin-1-yl)methyl)-5-chlorobenzoate]: > 10000 nM.
With `[N-]=[N+]=NCCOCCOCCOC(=O)c1nc(C(F)(F)F)n2c1CN(C(=O)C[C@H](N)Cc1cc(F)c(F)cc1F)CC2` [Compound 42, 2-(2-(2-azidoethoxy)ethoxy)ethyl (R)-7-(3-amino-4-(2,4,5-trifluorophenyl)butanoyl)-3-(trifluoromethyl)-5,6,7,8-tetrahydroimidazo[1,5-a]pyrazine-1-carboxylate], the IC50 came to 0.4 nM.
For the molecule `[N-]=[N+]=NCCOCCOCCNC(=O)c1nc(C(F)(F)F)n2c1CN(C(=O)C[C@H](N)Cc1cc(F)c(F)cc1F)CC2` [Compound 43], the 50% inhibitory concentration (IC50) was determined as 1 nM.
The figure for `N[C@@H](CC(=O)N1CCn2c(C(F)(F)F)nc(C(=O)OCCOCCOCCn3cc(CNC[C@H](O)[C@@H](O)[C@H](O)[C@H](O)CO)nn3)c2C1)Cc1cc(F)c(F)cc1F` [Compound 44, 2-(2-(2-(4-((((2S,3R,4R,5R)-2,3,4,5,6-pentahydroxyhexyl)amino)methyl)-1H-1,2,3-triazol-1-yl)ethoxy)ethoxy)ethyl 7-((R)-3-amino-4-(2,4,5-trifluorophenyl)butanoyl)-3-(trifluoromethyl)-5,6,7,8-tetrahydroimidazo[1,5-a]pyrazine-1-carboxylate] is 0.11 nM; for `CCN(Cc1cn(CCOCCOCCOC(=O)c2nc(C(F)(F)F)n3c2CN(C(=O)C[C@H](N)Cc2cc(F)c(F)cc2F)CC3)nn1)C[C@H](O)[C@@H](O)[C@H](O)[C@H](O)CO` [Compound 45, 2-(2-(2-(4-((ethyl((2S,3R,4R,5R)-2,3,4,5,6-pentahydroxyhexyl)amino)methyl)-1H-1,2,3-triazol-1-yl)ethoxy)ethoxy)ethyl 7-((R)-3-amino-4-(2,4,5-trifluorophenyl)butanoyl)-3-(trifluoromethyl)-5,6,7,8-tetrahydroimidazo[1,5-a]pyrazine-1-carboxylate] it is 0.55 nM; for `CCCCCCN(Cc1cn(CCOCCOCCNC(=O)c2nc(C(F)(F)F)n3c2CN(C(=O)C[C@H](N)Cc2cc(F)c(F)cc2F)CC3)nn1)CC(O)C(O)C(O)C(O)CO` (stereo partly drawn) [Compound 47, 7-((R)-3-amino-4-(2,4,5-trifluorophenyl)butanoyl)-N-(2-(2-(2-(4-((hexyl(2,3,4,5,6-pentahydroxyhexyl)amino)methyl)-1H-1,2,3-triazol-1-yl)ethoxy)ethoxy)ethyl)-3-(trifluoromethyl)-5,6,7,8-tetrahydroimidazo[1,5-a]pyrazine-1-carboxamide] it is 2.2 nM.
The figure for `N[C@@H](CC(=O)N1CCn2c(C(F)(F)F)nc(C(=O)OCCOCCOCCn3cc(CN(C[C@H](O)[C@@H](O)[C@H](O)[C@H](O)CO)C[C@H](O)[C@@H](O)[C@H](O)[C@H](O)CO)nn3)c2C1)Cc1cc(F)c(F)cc1F` [Compound 48, 2-(2-(2-(4-((bis((2S,3R,4R,5R)-2,3,4,5,6-pentahydroxyhexyl)amino)methyl)-1H-1,2,3-triazol-1-yl)ethoxy)ethoxy)ethyl 7-((R)-3-amino-4-(2,4,5-trifluorophenyl)butanoyl)-3-(trifluoromethyl)-5,6,7,8-tetrahydroimidazo[1,5-a]pyrazine-1-carboxylate] is 0.55 nM.
The figure for `N[C@@H](CC(=O)N1CCn2c(C(F)(F)F)nc(C(=O)OCCN3CCOCC3)c2C1)Cc1cc(F)c(F)cc1F` [Compound 49, (R)-4-(1-((2-morpholinoethoxy)carbonyl)-3-(trifluoromethyl)-5,6-dihydroimidazo[1,5-a]pyrazin-7(8H)-yl)-4-oxo-1-(2,4,5-trifluorophenyl)butan-2-aminium (2R,3S)-3-carboxy-2,3-dihydroxypropanoate] is 0.82 nM.
`N[C@@H](CC(=O)N1CCn2c(C(F)(F)F)nc(C(=O)NCCOCCN3CCOCC3)c2C1)Cc1cc(F)c(F)cc1F` [Compound 50, (R)-4-(1-((2-(2-morpholinoethoxy)ethyl)carbamoyl)-3-(trifluoromethyl)-5,6-dihydroimidazo[1,5-a]pyrazin-7(8H)-yl)-4-oxo-1-(2,4,5-trifluorophenyl)butan-2-aminium (2R,3R)-3-carboxy-2,3-dihydroxypropanoate]: the concentration for half-maximal inhibition (IC50) worked out at 0.54 nM.
The figure for `N[C@@H](CC(=O)N1CCn2c(C(F)(F)F)nc(C(=O)OCCCN3CCOCC3)c2C1)Cc1cc(F)c(F)cc1F` [Compound 51, (R)-4-(1-((3-morpholinopropoxy)carbonyl)-3-(trifluoromethyl)-5,6-dihydroimidazo[1,5-a]pyrazin-7(8H)-yl)-4-oxo-1-(2,4,5-trifluorophenyl)butan-2-aminium (2R,3R)-3-carboxy-2,3-dihydroxypropanoate] is 0.18 nM; for `N[C@@H](CC(=O)N1CCn2c(C(F)(F)F)nc(C(=O)OCCOCCN3CCOCC3)c2C1)Cc1cc(F)c(F)cc1F` [Compound 52, (R)-4-(1-((2-(2-morpholinoethoxy)ethoxy)carbonyl)-3-(trifluoromethyl)-5,6-dihydroimidazo[1,5-a]pyrazin-7(8H)-yl)-4-oxo-1-(2,4,5-trifluorophenyl)butan-2-aminium (2R,3R)-3-carboxy-2,3-dihydroxypropanoate] it is 0.54 nM; for `N[C@@H](CC(=O)N1CCn2c(C(F)(F)F)nc(C(=O)OCCCCCN3CCOCC3)c2C1)Cc1cc(F)c(F)cc1F` [Compound 53, (R)-4-(1-(((5-morpholinopentyl)oxy)carbonyl)-3-(trifluoromethyl)-5,6-dihydroimidazo[1,5-a]pyrazin-7(8H)-yl)-4-oxo-1-(2,4,5-trifluorophenyl)butan-2-aminium (2R,3R)-3-carboxy-2,3-dihydroxypropanoate] it is 1 nM.
Take `N[C@@H](CC(=O)N1CCn2c(C(F)(F)F)nc(C(=O)OCCCCN3CCOCC3)c2C1)Cc1cc(F)c(F)cc1F` [Compound 54, (R)-4-(1-((4-morpholinobutoxy)carbonyl)-3-(trifluoromethyl)-5,6-dihydroimidazo[1,5-a]pyrazin-7(8H)-yl)-4-oxo-1-(2,4,5-trifluorophenyl)butan-2-aminium (2R,3R)-3-carboxy-2,3-dihydroxypropanoate]: the IC50 came to 0.5 nM.
Consider `CN1CC2(CC(NC(=O)c3nc(C(F)(F)F)n4c3CN(C(=O)C[C@H](N)Cc3cc(F)c(F)cc3F)CC4)C2)C1` [Compound 55, (R)-4-(1-((2-methyl-2-azaspiro[3.3]heptan-6-yl)carbamoyl)-3-(trifluoromethyl)-5,6-dihydroimidazo[1,5-a]pyrazin-7(8H)-yl)-4-oxo-1-(2,4,5-trifluorophenyl)butan-2-aminium (2R,3R)-3-carboxy-2,3-dihydroxypropanoate], for which the IC50 came to 17.8 nM.

One may read the IC50 as the midpoint of a concentration-inhibition curve.
